Reference: patent publication US6689936B1, “Method for evaluating a compound for its effect on skin” (The General Hospital Corp., priority 1997, dated 2004)

How the values were obtained:
[1] = test system: human VEGF promoter driven GFP reporter; experiment: Induction of epidermal GFP by topical TPA in VEGF-GFP transgenic mouse skin (fluorescence microscopy of skin biopsy sections); format: in vivo; conditions: single dose of 5 μg TPA in acetone, topical on back skin, biopsy after 12 hours; acetone alone showed only basal levels
Procedure: Tissue preparation for GFP detection and epimicroscopic observation solutions washed out or diffused GFP-derived fluorescence from the site of GFP expression. Ultimately, a freshly dissected, unfixed tissue block, was directly cut into 12 μm thick frozen sections using a cryostat. Epifluorescent microscopic observation was performed immediately after sectioning, without mounting medium or extended slide storage, using FITC/TRITC double excitation and an emission filter Chroma, *VT) to distinguish the GFP-derived fluorescent signal from tissue autofluorescence.
For induction of VEGF mRNA by TPA, a single dose of 5 μg TPA in acetone was topically applied to back skin of transgenic mice and skin biopsy samples were collected after 12 hours.
Induction of epidermal GFP by phorbolester application was also examined. […] This signal seemed to localize to the basoplateral surface of the epithelium rather than in either the keratinocyt cytosol or nucleus.

[2] = test system: human VEGF promoter driven GFP reporter; experiment: Direct confocal detection of GFP induction in intact skin of living hairless VEGF-GFP transgenic mice; format: in vivo; conditions: TPA applied to back skin of anaesthetized hairless VEGF-GFP mouse, after 12hrs, compared with acetone on the same individual
Procedure: To examine whole intact skin on living transgenic mouse with confocal microscope, hairless VEGF-GFP transgenic mice were anaesthetized with avertin by intraperitoneal injection. They were placed directly on the petri dish with dorsal position. TPA or acetone treatment was performed on the back skin same as described above marking treated area with an ink to ease the orientation of the skin. Sections or intact skin of the mice were analyzed using Leica DM IRBE inverted microscope and Leica TCS NT4D confocal microscope system with band pass filter 530/30 nm, detecting emission at wavelengths between 515-545 nm.
To test whether the induction of GFP is directly detected in the skin of a living VEGF-GFP transgenic mouse, acetone or TPA applied skin of the transgenic hairless mouse (same individual) was directly examined by confocal imaging under anaesthetized condition. […] X-Z confocal imaging confirmed that this signal was within the basal layer of the epidermis.

[3] = test system: VEGF; conditions: topical application of phorbolesters; cited from earlier work

CCCCCCCCCCCCCC(=O)O[C@@H]1[C@@H](C)[C@@]2(O)[C@@H](C=C(CO)C[C@]3(O)C(=O)C(C)=C[C@@H]23)[C@H]2C(C)(C)[C@]12OC(C)=O [TPA]
GFP fluorescent signal in epidermis of transgenic skin [1]: Accumulation of fluorescent signal was observed
GFP fluorescence positive area in living epidermis (confocal imaging) [2]: increase of fluorescence positive area
expression of VEGF in epidermal keratinocytes [3]: up-regulated
